Experiments:
Assay type in all cases: physicochemical
[1] = Thermal stability by thermogravimetric analysis (TGA); conditions: 10° C./min to 600° C. under nitrogen
Description: This Example illustrates the thermal stability of MCPN. Thermogravimetric analysis (TGA) was conducted to determine the temperature that causes structural change in MCPN. […] TGA data was collected on a TA Q5000 Analyzer with a temperature ramping rate of 10° C./min from room temperature to 600° C. under nitrogen gas flow.

[2] = Adsorption or inclusion level of 1-MCP in adsorbents/encapsulants (release in water, headspace GC)
Description: This Example provides specific examples of methods for adsorbing 1-MCP into a MCPN. Adsorption of 1-MCP was carried out using both a modified solid method (method A) and a solution-based method (method B), as disclosed herein. The general protocol in both methods included a dual-vessel system, where 1-MCP was generated in the first vessel, also referred to as the generation vessel, and the adsorption took place in the second vessel, also referred to as the adsorption vessel. Before adsorption, 50 mg of adsorbent was first dried in a vacuum oven at 100° C. overnight and sealed in the adsorption vessel. […]
This Example illustrates some of the differences between the MCPNs of the present disclosure and prior art encapsulants (cyclodextrins). […] The percentage adsorbed or encapsulated was quantified by taking 55 mg of A1 or E4 and mixed with 25 ml of water in 500 ml sealed glass bottles to release 1-MCP.
Headspace sample was collected and injected into gas chromatography using methods described in Mir, “Harvest Maturity, Storage Temperature and 1-MCP Application Frequency Alter Firmness Retention and Chlorophyll Fluorescence of “Redchief Delicious” Apples,” Journal of American society of horticultural science, 2001, 126(5): 618-624). […] The peak area was used to quantify the concentration.

[3] = Release rate of 1-MCP by hydration with water (method C)
Description: This Example illustrates the release rate of 1-MCP from MCPNs and cyclodextrins. […] Encapsulation of sample S4 was carried out using methods A and D. Method C was used for the release of 1-MCP, where about 25 mg of S1 and S4 were hydrated with 25 mL of water in a 500 mL glass bottle under agitation. Headspace samples were withdrawn periodically to quantify the released 1-MCP.

[4] = Stability in water by powder X-ray diffraction; conditions: soaked in water 1 hour, 5 hours, 20 hours

Question: Which Decomposing temperature [1] does the source give for `OC[C@H]1O[C@@H]2O[C@H]3[C@H](O)[C@@H](O)[C@@H](O[C@H]4[C@H](O)[C@@H](O)[C@@H](O[C@H]5[C@H](O)[C@@H](O)[C@@H](O[C@H]6[C@H](O)[C@@H](O)[C@@H](O[C@H]7[C@H](O)[C@@H](O)[C@@H](O[C@H]8[C@H](O)[C@@H](O)[C@@H](O[C@H]1[C@H](O)[C@H]2O)O[C@@H]8CO)O[C@@H]7CO)O[C@@H]6CO)O[C@@H]5CO)O[C@@H]4CO)O[C@@H]3CO` [C-b, beta cyclodextrin] here?
Answer: Its Decomposing temperature is 280 °C.

Question: Which “Adsorption or inclusion level” value ([2]; 1-MCP loaded by method A (solid method)) does the source give for `OC[C@H]1O[C@@H]2O[C@H]3[C@H](O)[C@@H](O)[C@@H](O[C@H]4[C@H](O)[C@@H](O)[C@@H](O[C@H]5[C@H](O)[C@@H](O)[C@@H](O[C@H]6[C@H](O)[C@@H](O)[C@@H](O[C@H]7[C@H](O)[C@@H](O)[C@@H](O[C@H]1[C@H](O)[C@H]2O)O[C@@H]7CO)O[C@@H]6CO)O[C@@H]5CO)O[C@@H]4CO)O[C@@H]3CO` [S4, Alpha cyclodextrin] here?
Answer: The value was 0.05%.

Question: And the “Adsorption or inclusion level” value ([2]; 1-MCP loaded by method D (solution in pH 4.6 buffer, 50 mg S4/mL))?
Answer: Its value is 2.46%.

Question: And the “Time to complete release of 1-MCP” value ([3]; loaded by method A)?
Answer: Its value is “almost instantaneously”.

Question: And the “Time to complete release of 1-MCP” value ([3]; loaded by method D)?
Answer: The value was at most 40 min.

Question: What about the “% Released” value ([3]; loaded by method D, 5 min) of the same compound?
Answer: The value was 39%.

Question: And the “% Released” value ([3]; loaded by method D, 15 min)?
Answer: The value was 62%.

Question: What about the “% Released” value ([3]; loaded by method D, 25 min) of the same compound?
Answer: The value was 84%.

Question: And the “% Released” value ([3]; loaded by method D, 40 min)?
Answer: The value was 100%.

Question: What about the “% Released” value ([3]; loaded by method D, 60 min) of the same compound?
Answer: Its value is 100%.

Question: What about the “Change of X-ray pattern / structure after soaking in water” value [4] of the same compound?
Answer: Its value is “dramatic structure change after 1 hour soaking in water”.

Question: What about the Decomposing temperature [1] of the same compound?
Answer: Its Decomposing temperature is 280 °C.
